Source: patent US10294202B2, “Pyrrolidinones as herbicides” (FMC Corporation, priority 2013, dated 2019)

Columns and labels:
ragweed = test: Test A pre-/postemergence herbicide test; format: in vivo, Ambrosia elatior
Procedure, shortened: (§1)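 Seeds in loam–sand blend received preemergence directed soil spray; separately, plants 2–10 cm at one- to two-leaf stage received postemergence spray, both with test chemicals in non-phytotoxic solvent with surfactant. After ~10 days in greenhouse, injury rated visually against untreated controls, 0 (no effect) to 100 (complete control).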

ryegrass, Italian = test: Test A pre-/postemergence herbicide test; format: in vivo, Lolium multiflorum
Procedure, shortened: as §1

galium = test: Test A postemergence herbicide test; format: in vivo, Galium aparine; conditions: for Plant response rating, Galium: 125 g ai/ha
Procedure, shortened: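 Injury was rated visually about 10 days after treatment on a 0 (no effect) to 100 (complete control) scale, compared with untreated plants. Test chemicals were sprayed postemergence onto greenhouse plants 2–10 cm high at one to two leaves, grown in a loam–sand blend.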

chickweed = test: Test C postemergence herbicide test; format: in vivo, Stellaria media
Procedure, shortened: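 Response is scored visually on a 0–100 scale (100 = complete control) relative to untreated controls, 13 to 15 days after treatment. Plants were sprayed postemergence at the 1- to 4-leaf stage (2 to 18 cm tall) and kept in a greenhouse.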

rice = test: Test C flooded paddy test; format: in vivo, Oryza sativa; conditions: Flood
Procedure, shortened: (§2)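 Ratings reflect visual comparison with controls on a 0–100 scale, where 100 is complete control. Compound is dosed into standing paddy water 3 cm deep over 2-leaf-stage plants, kept in the greenhouse 13 to 15 days.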

sedge, umbrella = test: Test C flooded paddy test; format: in vivo, Cyperus difformis; conditions: Flood
Procedure, shortened: as §2

ducksalad = test: Test C flooded paddy test; format: in vivo, Heteranthera limosa; conditions: Flood
Procedure, shortened: as §2

barnyardgrass = test: Test C flooded paddy test; format: in vivo, Echinochloa crus-galli; conditions: Flood
Procedure, shortened: as §2

[1] = 125 g ai/ha, visual rating, 0 to 100 scale, 0 no effect, 100 complete control, approximately 10 days, preemergence
[2] = Postemergence, 125 g ai/ha, 0 to 100 scale, 0 is no effect, 100 is complete control
[3] = preemergence, 500 g ai/ha, 0 to 100 scale, 0 is no effect and 100 is complete control
[4] = 31 g ai/ha, scale 0 to 100 (0 no effect, 100 complete control)
[5] = 62 g ai/ha, scale 0 (no effect) to 100 (complete control)
[6] = 125 g ai/ha, scale 0 to 100 (0 no effect, 100 complete control)
[7] = 250 g ai/ha, scale 0 to 100 (0 no effect, 100 complete control)
[8] = 125 g ai/ha, scale of 0 to 100 where 0 is no effect and 100 is complete control, 13 to 15 days
[9] = 250 g ai/ha, scale of 0 to 100 where 0 is no effect and 100 is complete control, 13 to 15 days
[10] = Postemergence, 125 g ai/ha, visual rating on 0 to 100 scale (0 no effect, 100 complete control), approx. 10 days
[11] = Preemergence, 125 g ai/ha, 0 to 100 scale where 0 is no effect and 100 is complete control
[12] = Preemergence, 500 g ai/ha, visual rating on 0 to 100 scale (0 no effect, 100 complete control)

SMILES | Plant response rating, Chickweed (chickweed; [4]) | Plant response rating, Chickweed (chickweed; [5]) | Plant response rating, Chickweed (chickweed; [6]) | Plant response rating, Chickweed (chickweed; [7]) | Plant response rating, Rice (rice; [8]) | Plant response rating, Rice (rice; [9]) | Plant response rating, Rice (rice; 500 g ai/ha, scale 0 to 100) | Plant response rating, Rice (rice; 1000 g ai/ha, scale 0 to 100) | Plant response rating, Sedge, Umbrella (sedge, umbrella; [8]) | Plant response rating, Sedge, Umbrella (sedge, umbrella; [9]) | Plant response rating, Sedge, Umbrella (sedge, umbrella; 500 g ai/ha, scale 0 to 100) | Plant response rating, Sedge, Umbrella (sedge, umbrella; 1000 g ai/ha, scale 0 to 100) | Plant response rating, Ducksalad (ducksalad; [8]) | Plant response rating, Ducksalad (ducksalad; [9]) | Plant response rating, Ducksalad (ducksalad; 500 g ai/ha, scale 0 to 100) | Plant response rating, Ducksalad (ducksalad; 1000 g ai/ha, scale 0 to 100) | Plant response rating, Barnyardgrass (barnyardgrass; [8]) | Plant response rating, Barnyardgrass (barnyardgrass; [9]) | Plant response rating, Barnyardgrass (barnyardgrass; 500 g ai/ha, scale 0 to 100) | Plant response rating, Barnyardgrass (barnyardgrass; 1000 g ai/ha, scale 0 to 100) | other results
O=C1NC[C@H](c2cccc(C(F)(F)F)c2)[C@H]1C(=O)Nc1cccc(F)c1F [Compound 206] | 85 | 60 | 85 | 85 | 0 | 0 | 15 | 15 | 0 | 0 | 0 | 0 | 90 | 100 | 100 | 100 | 35 | 60 | 75 | 85 | Plant response rating, Ragweed (ragweed; [1]): 60; Plant response rating, Ragweed (ragweed; [2]): 0; Ragweed plant response rating (0 to 100 scale, 0 is no effect, 100 is complete control) (ragweed; Postemergence, 500 g ai/ha): 50; Plant response rating, Ragweed (ragweed; [3]): 70; Plant response rating, Ryegrass, Italian (ryegrass, Italian; [1]): 40; Plant response rating, Ryegrass, Italian (ryegrass, Italian; [2]): 50; Ryegrass, Italian plant response rating (0 to 100 scale, 0 is no effect, 100 is complete control) (ryegrass, Italian; Postemergence, 500 g ai/ha): 60; Plant response rating, Ryegrass, Italian (ryegrass, Italian; [3]): 80; Plant response rating, Galium (galium; 0 to 100 scale, 0 is no effect, 100 is complete control): 70; Galium plant response rating (0 to 100 scale, 0 is no effect, 100 is complete control) (galium; 500 g ai/ha): 80
O=C1NCC(c2ccc(F)c(F)c2)C1C(=O)Nc1ccc(F)c(F)c1F (stereo not drawn) [Compound 346] | 40 | 65 | 40 | 85 | 0 | 0 | 0 | 0 | 0 | 0 | 0 | 0 | 95 | 100 | 100 | 100 | 30 | 45 | 65 | 70 | Plant response rating, Ragweed (ragweed; [10]): 0; Plant response rating, Ragweed (ragweed; [11]): 0; Ragweed plant response rating (ragweed; [12]): 0; Plant response rating, Ryegrass, Italian (ryegrass, Italian; [10]): 20; Plant response rating, Ryegrass, Italian (ryegrass, Italian; [11]): 0; Ryegrass, Italian plant response rating (ryegrass, Italian; [12]): 30; Plant response rating, Galium (galium; visual rating on 0 to 100 scale (0 no effect, 100 complete control), approx. 10 days): 30
